Experiments:
MV4-11 cells = experiment: Antiproliferative activity, MTT assay; type: cell-based, human
Experimental: (§1) Human biphenotypic B myelomonocytic leukemia MV4-11, human colon cancer LoVo cell line and normal mouse fibroblast BALB/3T3 cells were obtained from American Type Culture Collection (Rockville, Maryland, USA), human lung carcinoma A549 cells were obtained from European Collection of Authenticated Cell Cultures (UK). All the cell lines are being maintained at the Hirszfeld Institute of Immunology and Experimental Therapy, PAS, Wroclaw, Poland and were cultured according the procedure described before.
(§2) Cell lines were cultured according to the protocol described before. MV4-11 cells were cultured in RPMI 1640 medium (Gibco, UK) with 1.0 mM sodium pyruvate, and 10% fetal bovine serum (FBS) (all from Sigma-Aldrich, Germany). A549, LoVo and LoVo/DX cells were cultured in RPMI 1640 + Opti-MEM (1:1) (both from Gibco, UK) supplemented with 5% fetal bovine serum, 1.0 mM sodium pyruvate (LoVo and LoVo/DX cells) (all from Sigma Aldrich Germany) and 0.1 μg/mL doxorubicin chloride (Accord) (only LoVo/DX cells). BALB/3T3 cells in Dulbecco medium (IIET, Poland) supplemented with 10% fetal bovine serum (Sigma-Aldrich, Germany). All culture media were supplemented with 2 mM L-glutamine (Sigma-Aldrich, Germany), 100 units/mL penicillin, and 100 µg/mL streptomycin (both from Polfa Tarchomin S.A., Poland). All cell lines were grown at 37 °C with 5% CO2 humidified atmosphere.
(§3) The solutions of the compounds (50 mM) were prepared by dissolving the substances in DMSO (Sigma Aldrich, Germany). Then the tested compounds were diluted in culture medium to reach the final concentrations of 625, 125, 25 and 5 μM. Before adding of the tested compounds (24 h prior), the cells were plated in 96-well plates (Sarstedt, Germany) at a density of 1 × 10^4 or 0.5 × 10^4 (A549) cells per well. The assay was performed after 72 h of exposure to 625, 125, 25 and 5 μM of the tested agents. The in vitro cytotoxic effect of all agents was examined using the MTT (MV4-11) or SRB assay, described previously. The results were calculated as an IC50 (inhibitory concentration 50%) the concentration of tested agent, which is cytotoxic for 50% of the cancer cells. Each compound in each concentration was tested in triplicate in a single experiment, which was repeated 3–5 times.

A549 cells = experiment: Antiproliferative activity, SRB assay; type: cell-based, human
Experimental: as §1, §2, §3

LoVo cells = experiment: Antiproliferative activity, SRB assay; type: cell-based, human; details: for IC50: 72 h exposure, SRB, mean ± SD, n.a = no activity in concentration of 5, 25, 125, 625 μM
Experimental: as §1, §2, §3

LoVo/DX cells = experiment: Antiproliferative activity, SRB assay, doxorubicin resistant subline; type: cell-based, human
Experimental: Cell lines were cultured according to the protocol described before. […] All culture media were supplemented with 2 mM L-glutamine (Sigma-Aldrich, Germany), 100 units/mL penicillin, and 100 µg/mL streptomycin (both from Polfa Tarchomin S.A., Poland). All cell lines were grown at 37 °C with 5% CO2 humidified atmosphere. The solutions of the compounds (50 mM) were prepared by dissolving the substances in DMSO (Sigma Aldrich, Germany). […] The in vitro cytotoxic effect of all agents was examined using the MTT (MV4-11) or SRB assay, described previously. […] Each compound in each concentration was tested in triplicate in a single experiment, which was repeated 3–5 times.

BALB/3T3 cells = experiment: Toxicity towards normal fibroblasts, SRB assay; type: cell-based; details: normal mouse fibroblasts, 72 h exposure, mean ± SD, n.a = no activity in concentration of 5, 25, 125, 625 μM
Experimental: as §1, §2, §3

Myzus persicae [1] = experiment: Aphid settling (choice test) on treated vs control leaves of Brassica rapa subsp. pekinensis; type: in vivo; details: 0.1% solution in 70% ethanol, mean (± SD), n = 8, 20 aphids/replicate
Experimental: (§4) The peach potato aphids Myzus persicae (Sulzer) and the Chinese cabbage Brassica rapa subsp. pekinensis (Lour.) Hanelt were reared in laboratory at 20 °C, 65% r.h., and L16:8D photoperiod. One to seven days old apterous females of M. persicae and 3-week old plants with 4–5 fully developed leaves were used for experiments. M. persicae were obtained from the laboratory culture maintained at the Department of Botany and Ecology for many generations since 2000. All experiments were carried out under the same conditions of temperature, relative humidity, and photoperiod. The bioassays were started at 10–11.a.m. Each compound was dissolved in 70% ethanol to obtain the recommended 0.1% solution[40]. All compounds were applied on the adaxial and abaxial leaf surfaces by immersing a leaf in the ethanolic solution of a given compound for 30 s.[20]. Control leaves of similar size were immersed in 70% ethanol that was used as a solvent for the studied compounds. Experiments were performed 1 h after the compounds application to allow the evaporation of the solvent. Every plant and aphid were used only once.
This bioassay allows the study of aphid host preferences under semi-natural conditions. In the present study, aphids were given free choice between control and treated excised leaves that were placed in a Petri dish. Aphids were placed in the dish equidistance from treated and untreated leaves, so that aphids could choose between treated (on one half of a Petri dish) and control leaves (on the other half of the dish). […] Each experiment was replicated 8 times (n = 8 replicates, 20 viviparous apterous females/replicate). Aphids that were moving or not on any of the leaves were not counted.
The data of the choice-test were analyzed using Student’s t-test (STATISTICA 13.1. package). […] If aphids settled mainly on the control leaf (p < 0.05), the compound tested in the respective choice-test was stated a deterrent. From the data thus obtained the relative index of deterrence (DI) was calculated: DI = (C − T/C + T) where C was the number of aphids settled on control leaf, T was the number of aphids settled on the leaf treated with the tested compound. The value of DI ranged between 1 (ideal deterrent) and − 1 (ideal attractant)[41].

Myzus persicae [2] = experiment: EPG monitoring of aphid probing and feeding (no-choice test); type: in vivo; details: 8-h EPG
Experimental: as §4
Aphid probing and the phloem sap uptake by M. persicae was monitored using the technique of electronic registration of aphid probing in plant tissues, known as EPG (= Electrical Penetration Graph), that is frequently employed in insect–plant relationship studies considering insects with sucking-piercing mouthparts[42]–[44]. In this experimental set-up, aphid and plant are connected to electrodes and thus made parts of an electric circuit, which is completed when the aphid inserts its stylets into the plant. Weak voltage is supplied in the circuit, and all changing electric properties are recorded as EPG waveforms that can be correlated with aphid activities and stylet position in plant tissues[45],[46]. The parameters describing aphid behaviour during probing and feeding, such as total time of probing, proportion of phloem patterns E1 and E2, number of probes, etc., are good indicators of plant suitability or interference of probing by chemical or physical factors in individual plant tissues[44]–[46]. In the present study, aphids were attached to a golden wire electrode with conductive silver paint (epgsystems. eu) and starved for 1 h prior to the experiment. Probing behaviour of 12 apterous females/studied compound and control was monitored for 8 h continuously with Giga-4 and Giga-8 DC EPG with 1 GΩ of input resistance recording equipment (EPG Systems, Wageningen, The Netherlands). Each aphid was given access to a freshly prepared plant and each aphid/plant combination was used only once. Various behavioural phases were labelled manually using the Stylet + software (www.epgsystems.eu). The following aphid behaviours were distinguished: no penetration (waveform 'np' – aphid stylets outside the plant), pathway phase—penetration of non-phloem tissues (waveforms 'ABC'), phloem phase (salivation into sieve elements, waveform ‘E1’ and ingestion of phloem sap, waveform ‘E2’), and xylem phase (ingestion of xylem sap, waveform 'G'). Waveform ‘G’ occurred rarely irrespective of the treatment. Therefore, in all calculations the xylem phase was added to the pathway phase and termed as probing in non-phloem tissues. The E1/E2 transition patterns were included in E2. Waveform patterns that were not terminated before the end of the experimental period (8 h) were not excluded from the calculations. The parameters derived from EPG recordings were analyzed according to their frequency and duration in configuration related to activities in peripheral and vascular tissues.
All statistical calculations related to data of the no-choice test were performed using StatSoft, Inc. (2014) STATISTICA (data analysis software system), version 12, www.statsoft.com. […]

[3] = system: caspase-3/7 in MV4-11 cells; experiment: Caspase-3/7 activity determination (Ac-DEVD-ACC substrate); type: cell-based, human; details: MV4-11, 75 µM, 72 h
Experimental: Caspase-3/7 activity determination was performed according to the protocol previously described. The MV4-11 cells were seeded at the density of 1 × 10^5 cells/mL of culture medium on 24-well plates (Sarstedt, Germany) to the final volume of 2 mL. The cells were exposed to the test compounds at concentrations 75 μM or campthothecin (0.05 μg/mL) as a positive control, for 72 h. After 72 h of the incubation, the cells were collected and centrifuged (5 min., 4 °C, 250×g). Cells were suspended in 50 µL of ice-cold lysis buffer (50 mM HEPES, 10% (w/v) sucrose, 150 mM NaCl, 2 mM EDTA, 1% (v/v) Triton X-100, pH 7.3, IIET, Poland) and incubated 30 min. at 4 °C. After the incubation, 40 µL of each sample was transferred to a white, 96-well plate (Corning, USA) containing 160 µL of the reaction buffer (20 mM HEPES, 10% sucrose, 100 mM NaCl, 1 mM EDTA, 10 mM DTT, 0.02% Trition X-100, pH 7.3) (IIET, Wroclaw, Poland) with 9 µM Ac-DEVD-ACC fluorogenic substrate (λex = 360 nm, λem = 460 nm). The fluorescence increase correlated with the caspase-3/7 level was continuously recorded at 37 °C for 120 min using a Biotek Synergy H4 (Biokom, Warsaw, Poland). Compounds were tested in duplicates in single experiment and each experiment was repeated at least three times independently. Results were normalized to the number of cells in each well and are reported as mean relative caspase-3/7 activity compared to untreated control sample ± SD.

[4] = 72 h exposure, SRB, mean ± SD, n.a = no activity in concentration of 5, 25, 125, 625 μM
[5] = 0.1% solution, mean ± SE, n = 12
[6] = activities in non-phloem tissues, mean ± SE, n = 10-12
[7] = activities in sieve elements, mean ± SE, n = 10-12

N.N.[Cl][Pt][Cl] [Cisplatin, reference compound]
IC50 (MV4-11 cells; 72 h exposure, MTT, mean ± SD, n.a = no activity in concentration of 5, 25, 125, 625 μM): 2.88 ± 0.83 µM | Selectivity index SI, MV4-11 (MV4-11 cells; SI = IC50 BALB/3T3 / IC50 MV4-11): 1.54 | IC50 (A549 cells; [4]): 3.97 ± 1.08 µM | Selectivity index SI, A549 (A549 cells; SI = IC50 BALB/3T3 / IC50 A549): 1.12 | IC50 (LoVo cells): 5.55 ± 0.12 µM | Selectivity index SI, LoVo (LoVo cells; SI = IC50 BALB/3T3 / IC50 LoVo): 0.80 | IC50 (LoVo/DX cells; [4]): 3.45 ± 1.01 µM | IR (index of resistance) (LoVo/DX cells; IR = IC50 against resistant LoVo/DX / IC50 against non-resistant LoVo, 0 < IR < 2 able to overcome drug resistance): 0.62 | Selectivity index SI, LoVo/DX (LoVo/DX cells; SI = IC50 BALB/3T3 / IC50 LoVo/DX): 1.29 | IC50 (BALB/3T3 cells): 4.44 ± 2.36 µM

C=CC(C)(CCCC(C)CCCC(C)CCCC(C)C)CC(=O)OCC (stereo not shown) [compound 2, ethyl 3,7,11,15-tetramethyl-3-vinylhexadecanoate]
Mean number of aphids settled on treated (test) leaf (Myzus persicae [1]; 1 h after access): 10.8 (± 1.7) | Mean number of aphids settled on treated (test) leaf (Myzus persicae [1]; 2 h after access): 8.9 (± 0.9) | Mean number of aphids settled on treated (test) leaf (Myzus persicae [1]; 24 h after access): 9.6 (± 1.6) | Mean duration of probing (C + G + E) (Myzus persicae [2]; [5]): 1.4 ± 0.6 h | Number of probes (Myzus persicae [2]; [5]): 17.6 ± 4.1 | Total duration of pathway (C) (Myzus persicae [2]; [5]): 4.7 ± 0.8 h | Total duration of phloem phase (E) (Myzus persicae [2]; [5]): 2.4 ± 0.8 h | Total duration of probing (C + G + E) (Myzus persicae [2]; [5]): 7.3 ± 0.2 h | Number of probes before first phloem phase (Myzus persicae [2]; [6]): 14.9 ± 4.1 | Time from first probe to first phloem phase (Myzus persicae [2]; [6]): 2.9 ± 0.8 h | Duration of first phloem phase (Myzus persicae [2]; [7]): 2.0 ± 0.8 h | Total duration of phloem salivation E1 (Myzus persicae [2]; [7]): 2.4 ± 1.2 min | Total duration of phloem sap ingestion E2 (Myzus persicae [2]; [7]): 2.4 ± 0.8 h | Number of probes < 3 min (Myzus persicae [2]; before first phloem phase, mean ± SE, n = 10-12): 9.1 ± 2.7 | Proportion of salivation in phloem phase (Myzus persicae [2]; (duration of E1 / duration of E1 + E2)*100): 7.9% | Proportion of phloem phase in total probing (Myzus persicae [2]; index = duration of phloem phase E / duration of probing C + G + E): 32.0% | Increase of caspase-3/7 activity compared to the control [3]: about 1.5 times

COc1cccc2c1C(=O)c1c(O)c3c(c(O)c1C2=O)C[C@@](O)(C(=O)CO)C[C@@H]3O[C@H]1C[C@H](N)[C@H](O)[C@H](C)O1 [Doxorubicin]
IC50 (LoVo cells; Homo sapiens, LoVo): 0.12 ± 0.01 µM

— publication PMC7896091, “Synthesis of novel phytol-derived γ-butyrolactones and evaluation of their biological activity” (Scientific Reports, 2021)
